Test results taken from PubChem BioAssay (NCI).
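Interpolation was linear, between the two tested concentrations surrounding the appropriate level; five concentrations were tested over 48 hours in 96-well plates. TGI: total growth inhibition.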

Key:
Assay in all cases: NCI tumour cell line growth inhibition, 48 h
786-0 renal = test system: 786-0 renal
A549 NSCLC = test system: A549 NSCLC
ACHN renal = test system: ACHN renal
BT-549 breast = test system: BT-549 breast
CAKI-1 renal = test system: CAKI-1 renal
CCRF-CEM leukemia = test system: CCRF-CEM leukemia
COLO 205 colon = test system: COLO 205 colon
DU-145 prostate = test system: DU-145 prostate
EKVX NSCLC = test system: EKVX NSCLC
HCC-2998 colon = test system: HCC-2998 colon
HCT-116 colon = test system: HCT-116 colon
HCT-15 colon = test system: HCT-15 colon
HL-60(TB) leukemia = test system: HL-60(TB) leukemia
HOP-62 NSCLC = test system: HOP-62 NSCLC
HOP-92 NSCLC = test system: HOP-92 NSCLC
HT29 colon = test system: HT29 colon
IGROV1 ovarian = test system: IGROV1 ovarian
K-562 leukemia = test system: K-562 leukemia
KM12 colon = test system: KM12 colon
LOX IMVI melanoma = test system: LOX IMVI melanoma
M14 melanoma = test system: M14 melanoma
MALME-3M melanoma = test system: MALME-3M melanoma
MCF7 breast = test system: MCF7 breast
MDA-MB-231 breast = test system: MDA-MB-231 breast
MDA-MB-435 = test system: MDA-MB-435
MOLT-4 leukemia = test system: MOLT-4 leukemia
NCI-H226 lung = test system: NCI-H226 lung
NCI-H23 lung = test system: NCI-H23 lung
NCI-H460 lung = test system: NCI-H460 lung
NCI-H522 lung = test system: NCI-H522 lung
NCI/ADR-RES ovarian = test system: NCI/ADR-RES ovarian
OVCAR-4 ovarian = test system: OVCAR-4 ovarian
OVCAR-5 ovarian = test system: OVCAR-5 ovarian
OVCAR-8 ovarian = test system: OVCAR-8 ovarian
PC-3 prostate = test system: PC-3 prostate
RPMI-8226 leukemia = test system: RPMI-8226 leukemia
SF-268 CNS = test system: SF-268 CNS
SF-295 CNS = test system: SF-295 CNS
SF-539 CNS = test system: SF-539 CNS
SK-MEL-2 melanoma = test system: SK-MEL-2 melanoma
SK-MEL-28 melanoma = test system: SK-MEL-28 melanoma
SK-MEL-5 melanoma = test system: SK-MEL-5 melanoma
SN12C renal = test system: SN12C renal
SNB-19 CNS = test system: SNB-19 CNS
SNB-75 CNS = test system: SNB-75 CNS
SR leukemia = test system: SR leukemia
SW-620 colon = test system: SW-620 colon
TK-10 renal = test system: TK-10 renal
U251 CNS = test system: U251 CNS
UACC-257 melanoma = test system: UACC-257 melanoma

Measured: TGI

Cc1c(CN)c(C)c(CN)c(C)c1CN
94.5 µM: NCI-H23 lung
> 100 µM: 786-0 renal | A549 NSCLC | ACHN renal | BT-549 breast | CAKI-1 renal | CCRF-CEM leukemia | COLO 205 colon | DU-145 prostate | EKVX NSCLC | HCC-2998 colon | HCT-116 colon | HCT-15 colon | HL-60(TB) leukemia | HOP-62 NSCLC | HOP-92 NSCLC | HT29 colon | IGROV1 ovarian | K-562 leukemia | KM12 colon | LOX IMVI melanoma | M14 melanoma | MALME-3M melanoma | MCF7 breast | MDA-MB-231 breast | MDA-MB-435 | MOLT-4 leukemia | NCI-H226 lung | NCI-H460 lung | NCI-H522 lung | NCI/ADR-RES ovarian | OVCAR-4 ovarian | OVCAR-5 ovarian | OVCAR-8 ovarian | PC-3 prostate | RPMI-8226 leukemia | SF-268 CNS | SF-295 CNS | SF-539 CNS | SK-MEL-2 melanoma | SK-MEL-28 melanoma | SK-MEL-5 melanoma | SN12C renal | SNB-19 CNS | SNB-75 CNS | SR leukemia | SW-620 colon | TK-10 renal | U251 CNS | UACC-257 melanoma
